Patent US20140249056A1, “BILAYERS” (ISIS INNOVATION LIMITED, priority 2009, published 2014)
Blank lines part the entries; values can stand above or below the compound they belong to.

What was measured:
[1] = molecular target: T1, Kv1.3 (K+ channels from lymphocyte membranes) (Homo sapiens, UniProt P22001); test: Bulk current block of voltage-gated potassium channels from lymphocyte (SupT1) membranes in droplet bilayer; assay type: biochemical; settings: +50 mV
T1 construct: endogenously expressed voltage-gated potassium channels in primary lymphocytes; endogenous in cells; host or cells: SupT1 cells
Method: SupT1 cells were grown as a suspension culture and washed four times in buffer (150 mM KCl, 10 mM Hepes, pH 7.5). Cells were then lysed by hypo-osmotic shock, and membranes isolated by centrifugation and washing in isotonic buffer (140 mM KCl, 10 mM Hepes, pH 7.5). Membranes were diluted 1:10^4 and 1 μL of this solution was deposited on an agarose coated coverslip (1.5%). For bulk current blocking 4-aminopyridine a non-specific K+ channel blocker was used (5 mM, +50 mV). For specific blocking Kaliotoxin, a specific Kv-channel blocker, was used (50 μM, +50 mV).

[2] = molecular target: T2, bacterial potassium channel KcsA (Streptomyces lividans, UniProt P0A334); test: Bulk current block of KcsA from E. coli membranes reconstituted in droplet bilayer; assay type: biochemical; settings: 150 mM Ba2+ (BaCl2) in droplet, +50 mV, n=5
T2 construct: made in house; host or cells: porin-free E. coli strain PC2889, vector pQE60
T2 sequence (P0A334 1-160): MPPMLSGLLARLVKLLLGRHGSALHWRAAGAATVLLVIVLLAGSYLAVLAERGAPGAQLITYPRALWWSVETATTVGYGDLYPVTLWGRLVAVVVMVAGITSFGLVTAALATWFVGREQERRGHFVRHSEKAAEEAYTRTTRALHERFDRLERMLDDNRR
Method: KcsA was overexpressed in pQE60 (Qiagen, Germany) using a porin-free E. coli strain PC2889. Cells were disintegrated using a pressure-based cell homogenizer (TC5-612, Stansted Fluid Power, UK) and membranes isolated by centrifugation in water before freezing in liquid nitrogen. Sedimented membranes were resuspended in 150 mM KCl, 10 mM Hepes, pH 7.5. Membrane preparations were diluted 1:10^6 (for all cases dilutions are reported as volume:volume unless stated otherwise) and 1:10^8 for bulk and single channel recordings, respectively. Bulk and single channel recording was performed in 150 mM KCl, 10 mM Succinic acid, pH 4. Blocking experiments were performed using droplets containing 150 mM BaCl2, 10 mM Hepes, pH 7.5 (+50 mV, n=5).

Gardos K+ ion channel = molecular target: T3, Gardos K+ ion channel (Homo sapiens, UniProt O15554+P0DP23); test: Ca2+ dependent K+ flux in red blood cell membranes reconstituted in droplet bilayer; assay type: biochemical; settings: 5 mM Ca2+ versus none, 150 mM KCl, pH 7, +50 mV, n=5
T3 construct: red blood cells were isolated from whole blood; from tissue; host or cells: red blood cells from whole blood
Method: Following previously published protocol (Gibson et al, J Physiol: 511(Pt1), 225-234 (1998)), red blood cells were isolated from whole blood of Sickle Cell or healthy individuals by centrifugation and washing four times in PBS buffer (137 mM NaCl, 2.7 mM KCl, 10 mM sodium phosphate dibasic, 2 mM potassium phosphate monobasic, pH 7.4, containing 1% glucose), removing remaining blood components by aspiration. Cells were lysed by hypo-osmotic shock in low salt buffer (15 mM NaCl, 10 mM EDTA, 10 mM Hepes, pH 7). Membranes were then sedimented by centrifugation and washed in low salt buffer four times before resuspension into isotonic buffer (150 mM NaCl or KCl or CaCl2, 10 mM Hepes, pH 7.4). For Gardos channel experiments, membranes were resuspended in isotonic buffer containing 150 mM KCl, 10 mM Hepes, pH 7. Droplets with or without Ca^2+ (150 mM KCl, +/−5 mM CaCl2, +/−5 mM KCl, 10 mM Hepes, pH 7, +50 mV, n=5) were used to observe Ca^2+ dependent K^+ flux. […] Further dilution of 1:20 was needed for single channel recordings.

[3] = tested on: KATP channel (Kir6.2 and SUR1); test: Bulk current block of KATP channels from Min6 cell membranes reconstituted in droplet bilayer; assay type: biochemical; settings: glibenclamide 1 mM, +50 mV, 140 mM KCl, 10 mM Hepes, pH 7.5, n=5
Method: For KATP channels, Kir6.2 and SUR1 (Sulfonylurea receptor) were co-expressed in Min6 cells. Frozen cells were subjected to three freeze-thaw cycles before they were sonicated for 1 minute (4° C., Sonorex, Bandelin, Germany, 320 W). After isolation of membranes by centrifugation, membranes were washed in isotonic buffer (140 mM KCl, 10 mM Hepes, pH 7.5), and diluted 1:5000. Membranes were incorporated into agarose by mixing (1:10 v:v) with cooling agarose (1.5%) and deposited onto the coverslip prior to device assembly. For single channel recordings the sample was diluted a further 10-fold. Electrical recordings were performed in 140 mM KCl, 10 mM Hepes, pH 7.5 in both droplet and agarose support. Bulk current block was obtained using glybenclamide (1 mM, +50 mV, n=5).

[4] = molecular target: Human NR1-1a/NR2A NMDA receptor (Homo sapiens, UniProt Q05586+Q12879); settings: glutamate 10 μM and glycine 10 μM added together, +50 mV, bulk current, n=5
Human NR1-1a/NR2A NMDA receptor, sequence (Q12879 23-1464, other chains not shown): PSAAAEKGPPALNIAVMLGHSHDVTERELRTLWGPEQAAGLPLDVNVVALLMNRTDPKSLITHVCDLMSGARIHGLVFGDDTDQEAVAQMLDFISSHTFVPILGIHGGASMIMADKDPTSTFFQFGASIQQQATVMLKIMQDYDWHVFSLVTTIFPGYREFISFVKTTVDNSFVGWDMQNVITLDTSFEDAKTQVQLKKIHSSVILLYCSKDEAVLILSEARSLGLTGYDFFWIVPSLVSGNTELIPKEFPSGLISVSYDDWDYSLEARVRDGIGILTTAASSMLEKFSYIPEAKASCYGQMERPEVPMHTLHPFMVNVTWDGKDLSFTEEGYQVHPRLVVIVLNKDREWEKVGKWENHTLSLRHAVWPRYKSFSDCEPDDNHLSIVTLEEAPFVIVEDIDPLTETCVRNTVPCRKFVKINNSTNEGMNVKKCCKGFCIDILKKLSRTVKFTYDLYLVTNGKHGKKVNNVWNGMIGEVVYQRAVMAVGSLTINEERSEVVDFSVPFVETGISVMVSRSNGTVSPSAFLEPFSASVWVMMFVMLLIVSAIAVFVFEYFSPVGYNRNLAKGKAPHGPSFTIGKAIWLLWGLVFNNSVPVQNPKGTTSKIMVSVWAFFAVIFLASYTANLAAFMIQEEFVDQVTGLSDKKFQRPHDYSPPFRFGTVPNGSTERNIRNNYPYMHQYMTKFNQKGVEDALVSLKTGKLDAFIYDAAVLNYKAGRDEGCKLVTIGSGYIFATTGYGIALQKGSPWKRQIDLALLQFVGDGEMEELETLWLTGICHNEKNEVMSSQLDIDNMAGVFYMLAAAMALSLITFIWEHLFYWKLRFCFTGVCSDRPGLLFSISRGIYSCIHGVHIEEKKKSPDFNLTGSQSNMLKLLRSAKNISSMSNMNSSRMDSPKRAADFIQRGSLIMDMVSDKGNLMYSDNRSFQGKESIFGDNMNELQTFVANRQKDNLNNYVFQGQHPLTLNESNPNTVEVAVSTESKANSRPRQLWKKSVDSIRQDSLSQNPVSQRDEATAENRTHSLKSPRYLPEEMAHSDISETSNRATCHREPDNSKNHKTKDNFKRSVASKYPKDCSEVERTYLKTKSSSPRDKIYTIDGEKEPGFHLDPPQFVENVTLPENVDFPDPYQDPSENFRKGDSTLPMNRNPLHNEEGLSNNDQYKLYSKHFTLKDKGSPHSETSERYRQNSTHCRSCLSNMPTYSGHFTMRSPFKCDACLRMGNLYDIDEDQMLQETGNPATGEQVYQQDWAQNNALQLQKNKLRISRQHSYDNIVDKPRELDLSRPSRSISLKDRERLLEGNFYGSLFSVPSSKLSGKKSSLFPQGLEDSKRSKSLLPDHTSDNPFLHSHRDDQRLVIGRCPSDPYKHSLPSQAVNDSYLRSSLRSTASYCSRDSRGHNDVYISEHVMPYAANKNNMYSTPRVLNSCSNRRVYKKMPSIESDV
Method: Human NR1-1a/NR2A receptor subunits were expressed in a adherent mouse fibroblast 3T3 cell line. After mechanically detaching cells from culture flasks, cells were washed in isotonic buffer (3 times with 140 mM NaCl, 10 mM Hepes, pH 7.5), Cells were then mechanically disrupted by 30 s of ultrasound (Sonorex, Bandelin, Germany, 320 W) and four freeze-thaw cycles. After isolating the membranes by centrifugation and washing in the above buffer, the sample was diluted into the same buffer (1:10^3). […] Upon further dilution of the membrane preparation (1:100) single channels could be recorded (+50 mV applied voltage).

T1 sequence (P22001 whole entry): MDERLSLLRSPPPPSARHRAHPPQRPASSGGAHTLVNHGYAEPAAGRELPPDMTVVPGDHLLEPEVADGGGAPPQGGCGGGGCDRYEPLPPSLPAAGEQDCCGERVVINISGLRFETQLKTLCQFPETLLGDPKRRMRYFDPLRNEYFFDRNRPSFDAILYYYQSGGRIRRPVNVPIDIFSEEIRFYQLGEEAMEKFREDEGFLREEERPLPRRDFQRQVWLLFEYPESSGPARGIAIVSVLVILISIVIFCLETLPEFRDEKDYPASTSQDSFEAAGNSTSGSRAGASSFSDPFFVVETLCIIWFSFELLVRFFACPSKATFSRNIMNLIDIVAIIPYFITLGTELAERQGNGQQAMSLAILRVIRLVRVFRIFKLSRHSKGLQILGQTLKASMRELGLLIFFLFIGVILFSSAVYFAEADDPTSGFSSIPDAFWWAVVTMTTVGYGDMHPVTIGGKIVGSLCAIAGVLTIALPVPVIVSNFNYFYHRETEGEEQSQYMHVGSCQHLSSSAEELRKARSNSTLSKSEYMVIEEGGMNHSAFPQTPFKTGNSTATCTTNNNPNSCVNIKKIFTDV

Compound: Nc1ccncc1 [4-aminopyridine]
block of bulk current (ion flux reduced) ([1]; 5 mM 4-aminopyridine): 96%

Compound: [Ba+2].[Cl-].[Cl-] [Ba^2+, BaCl2]
block in current [2]: 93%

increase of Ca2+ induced K+ flux (Gardos K+ ion channel): seven
Compound: [Ca+2].[Cl-].[Cl-] [Ca^2+, CaCl2]

Compound: COc1ccc(Cl)cc1C(=O)NCCc1ccc(S(=O)(=O)NC(=O)NC2CCCCC2)cc1 [glibenclamide]
bulk currents blocked [3]: 91%

increase in ionic flux [4]: 98%
Compound: NCC(=O)O [glycine]

Compound: Kaliotoxin: a specific Kv-channel blocker
block of bulk current (ion flux reduced) ([1]; 50 μM Kaliotoxin): 99%
block of bulk current (ion flux reduced) ([1]; 50 μM Kaliotoxin, listed as KTX): 99.4%
